Where a name gives a salt, the structure may show the parent alone. Read-outs that look alike come from different tables or passages of the source.
Columns and labels:
5-HT4 receptor [1] = target: T1, 5-HT4 receptor (Rattus norvegicus, UniProt Q62758); experiment: 5-HT4 receptor antagonism in carbamylcholine-contracted isolated esophagus smooth muscle (antagonism of serotonin-induced relaxation); design: species or system male Wistar rats
T1 construct: esophagus smooth muscle, freshly removed from male Wistar rats; from tissue; host or cells: esophagus smooth muscle of male Wistar rats
Procedure: The test was carried out in esophagus smooth muscle, freshly removed from male Wistar rats weighing 250-300 g each. The rats were killed by cervical dislocation, and the esophagus was removed and dissected free of connective tissue. The esophagi were used as longitudinal preparations--obtaining two preparations from each animal. The tissues were tied with thread at each end with the lower end being tied to a stationary glass rod and the upper end to a force transducer.
Tissues were mounted in organ baths containing 10 mL of modified Krebs' solution of the following composition (millimolar) NaCl 118.2; KCl 4.6; CaCl2.2H2 O 1.6; KH2 PO4 1.2; MgSO4 1.2; dextrose 10.0; and NaHCO3 24.8. Tissue bath solutions were maintained at 37° C. and aerated with 95% O2 -5% CO2. Tissues were placed under optimum resting force, 1 g, and were allowed to equilibrate for 1 hr before exposure to drugs. Isometric contractions were recorded as changes in grams of force on the Modular Instruments Inc. (Malvern, Pa.) model M4000 data acquisition system with Sensotec (Columbus, Ohio) model MBL 5514-02 transducers.
For studies with partial agonists or antagonists, tissues were preincubated with vehicle or antagonist for 45 min. All drugs were prepared daily in deionized water and kept on ice during the course of the experiment. The tissues were contracted by incubation with 10^-7 -10^-5 M carbamylcholine, and were relaxed by the addition of serotonin at 10^-8 -10^-10 M, which treatment relaxed the tissue and reduced the contraction caused by carbamylcholine. Addition of a compound of the present invention antagonized the serotonin response and reduced the observed relaxations of the tissue. Repeated tests of each compound at various concentrations were carried out, and the concentration that caused a two-fold shift of the relaxation curve was calculated. That concentration is reported here as the negative logarithm. In each case, the SEM of the data has been calculated and is shown below, as is the number of experiments carried out with each compound.

5-HT4 receptor [2] = details: presently known compound; cited from earlier work

T1 sequence (Q62758 whole entry): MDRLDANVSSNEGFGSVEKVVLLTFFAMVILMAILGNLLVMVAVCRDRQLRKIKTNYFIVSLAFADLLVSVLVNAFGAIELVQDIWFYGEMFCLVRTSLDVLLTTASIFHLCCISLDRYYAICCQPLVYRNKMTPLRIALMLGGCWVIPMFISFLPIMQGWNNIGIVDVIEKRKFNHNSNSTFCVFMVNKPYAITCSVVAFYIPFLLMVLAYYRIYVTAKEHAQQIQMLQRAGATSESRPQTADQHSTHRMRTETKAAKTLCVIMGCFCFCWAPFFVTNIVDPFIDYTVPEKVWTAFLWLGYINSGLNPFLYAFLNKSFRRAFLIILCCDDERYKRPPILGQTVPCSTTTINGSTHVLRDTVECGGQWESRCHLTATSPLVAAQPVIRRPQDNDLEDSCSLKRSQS

SMILES | Kb (5-HT4 receptor [1]) [nM] | also measured
O=C(NCCN1CCCCC1)c1n[nH]c2ccccc12 [Example 1, N-[2-(1-piperidinyl)ethyl]-1H-indazole-3-carboxamide hydrochloride] | – | Kb (5-HT4 receptor [1]; negative logarithm of concentration that caused a two-fold shift of the serotonin relaxation curve, rat esophagus, 45 min preincubation, ± SEM (number of experiments), read-out: -Log KB (converted)): 31.6 nM
CC(C)n1nc(C(=O)NCCN2CCCCC2)c2ccccc21 [Example 2, N-[2-(1-piperidinyl)ethyl]-1-(2-propyl)-1H-indazole-3-carboxamide hydrochloride] | 10 | –
CC(C)n1nc(C(=O)NCCCN2CCCCC2)c2ccccc21 [Example 4, N-[3-(1-piperidinyl)propyl]-1-(2-propyl)-1H-indazole-3-carboxamide hydrochloride] | 7.94 | –
CC(C)n1nc(C(=O)NCCCCN2CCCCC2)c2ccccc21 [Example 6, N-[4-(1-piperidinyl)butyl]-1-(2-propyl)-1H-indazole-3-carboxamide oxalate] | 6.31 | –
CC(C)n1nc(C(=O)NCCN2CCC(NC(=O)OCc3ccccc3)CC2)c2ccccc21 [Example 8, N-[2-(4-benzyloxycarbonylamino-1-piperidinyl)ethyl]-1-(2-propyl)-1H-indazole-3-carboxamide oxalate] | 1.58 | –
CC(C)n1nc(C(=O)NCCN2CCCC2)c2ccccc21 [Example 10, N-[2-(1-pyrrolidinyl)ethyl]-1-(2-propyl)-1H-indazole-3-carboxamide hydrochloride] | 20 | –
CC(C)n1nc(C(=O)NCCN2CCCCCC2)c2ccccc21 [Example 12, N-[2-(1-hexamethyleneiminyl)ethyl]-1-(2-propyl)-1H-indazole-3-carboxamide hydrochloride] | 10 | –
CC(C)n1nc(C(=O)NCCN2CCOCC2)c2ccccc21 [Example 14, N-[2-(4-morpholinyl)ethyl]-1-(2-propyl)-1H-indazole-3-carboxamide hydrochloride] | 25.1 | –
CC(C)n1nc(C(=O)NCCN2CCN(Cc3ccccc3)CC2)c2ccccc21 [Example 16, N-[2-(4-benzyl-1-piperazinyl)ethyl]-1-(2-propyl)-1H-indazole-3-carboxamidedihydrochloride] | 10 | –
CC(C)n1nc(C(=O)NCCN2CCN(C(=O)c3ccccc3)CC2)c2ccccc21 [Example 18, N-[2-(4-benzoyl-1-piperazinyl)ethyl]-1-(2-propyl)-1H-indazole-3-carboxamide oxalate] | 31.6 | –
CC(C)n1nc(C(=O)NCCN2CCC(Cc3ccccc3)CC2)c2ccccc21 [Example 20, N-[2-(4-benzyl-1-piperidinyl)ethyl]-1-(2-propyl)-1H-indazole-3-carboxamideoxalate] | 50.1 | –
CC(C)n1nc(C(=O)NCCN2CCc3ccccc3C2)c2ccccc21 [Example 22, N-[2-(1,2,3,4-tetrahydro-2-isoquinolinyl)ethyl]-1-(2-propyl)-1H-indazole-3-carboxamide oxalate] | 10 | –
CC(C)n1nc(C(=O)NCCN2CCC(N)CC2)c2ccccc21 [Example 23, N-[2-(4-amino-1-piperidinyl)ethyl]-1-(2-propyl)-1H-indazole-3-carboxamide dioxalate] | 158 | –
CC(C)n1nc(C(=O)NCCN2CCC(NS(C)(=O)=O)CC2)c2ccccc21 [Example 24, N-[2-(4-methylsulfonylamino-1-piperidinyl)ethyl]-1-(2-propyl)-1H-indazole-3-carboxamide oxalate] | 12.6 | –
CC(C)n1nc(C(=O)NCCN2CCC(NC(=O)c3ccccc3)CC2)c2ccccc21 [Example 25, N-[2-(4-benzoylamino-1-piperidinyl)ethyl]-1-(2-propyl)-1H-indazole-3-carboxamide oxalate] | 2.51 | –
CC(C)n1nc(C(=O)NCCN2CCC(NC(=O)Cc3ccccc3)CC2)c2ccccc21 [Example 26, N-[2-(4-benzylcarbonylamino-1-piperidinyl)ethyl]-1-(2-propyl)-1H-indazole-3-carboxamide oxalate] | 3.98 | –
CC(C)n1nc(C(=O)NCCN2CCC(NC(=O)C34CC5CC(CC(C5)C3)C4)CC2)c2ccccc21 [Example 27, N-[2-(4-(1-adamantylcarbonylamino)-1-piperidinyl)ethyl]-1-(2-propyl)-1H-indazole-3-carboxamide oxalate] | 0.126 | –
CC(=O)NC1CCN(CCNC(=O)c2nn(C(C)C)c3ccccc23)CC1 [Example 28, N-[2-(4-acetylamino-1-piperidinyl)ethyl]-1-(2-propyl)-1H-indazole-3-carboxamide oxalate] | 5.01 | –
CCC(=O)NC1CCN(CCNC(=O)c2nn(C(C)C)c3ccccc23)CC1 [Example 29, N-[2-(4-propionylamino-1-piperidinyl)ethyl]-1-(2-propyl)-1H-indazole-3-carboxamide oxalate] | 3.16 | –
CCCC(=O)NC1CCN(CCNC(=O)c2nn(C(C)C)c3ccccc23)CC1 [Example 30, N-[2-(4-butyrylamino-1-piperidinyl)ethyl]-1-(2-propyl)-1H-indazole-3-carboxamide oxalate] | 15.8 | –
CCCCC(=O)NC1CCN(CCNC(=O)c2nn(C(C)C)c3ccccc23)CC1 [Example 31, N-[2-(4-valerylamino-1-piperidinyl)ethyl]-1-(2-propyl)-1H-indazole-3-carboxamide] | 20 | –
CC(C)C(=O)NC1CCN(CCNC(=O)c2nn(C(C)C)c3ccccc23)CC1 [Example 32, N-[2-(4-isobutyrylamino-1-piperidinyl)ethyl]-1-(2-propyl)-1H-indazole-3-carboxamide oxalate] | 2.51 | –
CC(C)n1nc(C(=O)NCCN2CCC(NC(=O)C(C)(C)C)CC2)c2ccccc21 [Example 33, N-[2-(4-trimethylacetylamino-1-piperidinyl)ethyl]-1-(2-propyl)-1H-indazole-3-carboxamide oxalate] | 3.16 | –
CC(C)n1nc(C(=O)NCCN2CCC(NC(=O)NCc3ccccc3)CC2)c2ccccc21 [Example 34, N-[2-(4-benzylaminocarbonylamino)-1-piperidinyl)ethyl]-1-(2-propyl)-1H-indazole-3-carboxamide oxalate] | 5.01 | –
CC(C)n1nc(C(=O)NCCN2CCC(NC(=O)Nc3ccccc3)CC2)c2ccccc21 [Example 35, N-[2-(4-phenylaminocarbonylamino)-1-piperidinyl)ethyl]-1-(2-propyl)-1H-indazole-3-carboxamide oxalate] | 10 | –
CC(C)n1nc(C(=O)NCCN2CCC(NC(=O)Nc3ccc(F)cc3)CC2)c2ccccc21 [Example 36, N-[2-(4-(4-fluorophenylaminocarbonylamino)-1-piperidinyl)ethyl]-1-(2-propyl)-1H-indazole-3-carboxamide oxalate] | 25.1 | –
CC(C)n1nc(C(=O)NCCN2CCC(NC(=O)C34CC5CC(CC(O)(C5)C3)C4)CC2)c2ccccc21 [Example 37, N-[2-(4-(3-hydroxy-1-adamantylcarbonylamino)-1-piperidinyl)ethyl]-1-(2-propyl)-1H-indazole-3-carboxamide oxalate] | 1.26 | –
CC(C)n1nc(C(=O)NCCN2CCC(NC(=O)C34CC5CC(C3)C(O)C(C5)C4)CC2)c2ccccc21 (centres unmarked) [Example 38, N-[2-(4-(4-hydroxy-1-adamantylcarbonylamino)-1-piperidinyl)ethyl]-1-(2-propyl)-1H-indazole-3-carboxamide oxalate] | 2 | –
COc1cc(N)c(Cl)cc1C(=O)NC1CCN(CCCOc2ccc(F)cc2)CC1OC (centres unmarked) [cisapride] | – | affinity at the 5-HT4 receptor (5-HT4 receptor [2]): high affinity
